According to PubChem BioAssay (NCI):
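96-well plates; 48 h exposure; 5 concentrations. Endpoints by linear interpolation between flanking doses. Not reached: highest tested concentration assigned. GI50: concentration for 50% inhibition of growth. TGI denotes the concentration required for complete inhibition of growth.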

Columns and labels:
Test in all cases: inhibition of tumour cell growth, NCI panel, 48 h
[1] = system: HCC-2998 colon
[2] = system: MDA-MB-435
[3] = system: MDA-MB-231 breast
[4] = system: RPMI-8226 leukemia
[5] = system: BT-549 breast
[6] = system: CCRF-CEM leukemia
[7] = system: HOP-92 NSCLC
[8] = system: NCI-H522 lung
[9] = system: NCI-H23 lung
[10] = system: SW-620 colon
[11] = system: CAKI-1 renal
[12] = system: SN12C renal
[13] = system: IGROV1 ovarian
[14] = system: UACC-62 melanoma
[15] = system: ACHN renal
[16] = system: SF-268 CNS
[17] = system: SK-MEL-28 melanoma
[18] = system: HT29 colon
[19] = system: OVCAR-3 ovarian
[20] = system: KM12 colon
[21] = system: K-562 leukemia
[22] = system: SK-MEL-5 melanoma
[23] = system: RXF 393 renal
[24] = system: 786-0 renal
[25] = system: SK-MEL-2 melanoma
[26] = system: A549 NSCLC
[27] = system: HOP-62 NSCLC
[28] = system: HL-60(TB) leukemia
[29] = system: SK-OV-3 ovarian
[30] = system: HCT-116 colon
[31] = system: SNB-19 CNS
[32] = system: M14 melanoma
[33] = system: COLO 205 colon
[34] = system: SNB-75 CNS
[35] = system: LOX IMVI melanoma
[36] = system: T-47D breast
[37] = system: SR leukemia
[38] = system: SF-295 CNS
[39] = system: OVCAR-4 ovarian
[40] = system: MCF7 breast
[41] = system: MOLT-4 leukemia
[42] = system: OVCAR-5 ovarian
[43] = system: NCI-H460 lung
[44] = system: MALME-3M melanoma
[45] = system: PC-3 prostate
[46] = system: HS 578T breast
[47] = system: HCT-15 colon
[48] = system: OVCAR-8 ovarian
[49] = system: UACC-257 melanoma
[50] = system: DU-145 prostate
[51] = system: U251 CNS
[52] = system: NCI-H226 lung
[53] = system: A498 renal
[54] = system: UO-31 renal
[55] = system: TK-10 renal
[56] = system: NCI/ADR-RES ovarian

Q: Which results are given for `CCCCCCCCCCCCCCNc1nc(C(=O)OCC)ncc1-c1ccc(C(F)(F)F)cc1`?
A: GI50 [1]: > 100 µM; TGI [1]: > 100 µM; GI50 [2]: > 100 µM; TGI [2]: > 100 µM; GI50 [3]: > 100 µM; TGI [3]: > 100 µM; GI50 [4]: > 100 µM; TGI [4]: > 100 µM; GI50 [5]: > 100 µM; TGI [5]: > 100 µM; GI50 [6]: > 100 µM; TGI [6]: > 100 µM; GI50 [7]: > 100 µM; TGI [7]: > 100 µM; GI50 [8]: > 100 µM; TGI [8]: > 100 µM; GI50 [9]: > 100 µM; TGI [9]: > 100 µM; GI50 [10]: > 100 µM; TGI [10]: > 100 µM; GI50 [11]: > 100 µM; TGI [11]: > 100 µM; GI50 [12]: > 100 µM; TGI [12]: > 100 µM; GI50 [13]: > 100 µM; TGI [13]: > 100 µM; GI50 [14]: > 100 µM; TGI [14]: > 100 µM; GI50 [15]: > 100 µM; TGI [15]: > 100 µM; GI50 [16]: > 100 µM; TGI [16]: > 100 µM; GI50 [17]: > 100 µM; TGI [17]: > 100 µM; GI50 [18]: > 100 µM; TGI [18]: > 100 µM; GI50 [19]: > 100 µM; TGI [19]: > 100 µM; GI50 [20]: > 100 µM; TGI [20]: > 100 µM; GI50 [21]: > 100 µM; TGI [21]: > 100 µM; GI50 [22]: > 100 µM; TGI [22]: > 100 µM; GI50 [23]: > 100 µM; TGI [23]: > 100 µM; GI50 [24]: > 100 µM; TGI [24]: > 100 µM; GI50 [25]: > 100 µM; TGI [25]: > 100 µM; GI50 [26]: > 100 µM; TGI [26]: > 100 µM; GI50 [27]: > 100 µM; TGI [27]: > 100 µM; GI50 [28]: > 100 µM; TGI [28]: > 100 µM; GI50 [29]: > 100 µM; TGI [29]: > 100 µM; GI50 [30]: > 100 µM; TGI [30]: > 100 µM; GI50 [31]: > 100 µM; TGI [31]: > 100 µM; GI50 [32]: > 100 µM; TGI [32]: > 100 µM; GI50 [33]: > 100 µM; TGI [33]: > 100 µM; GI50 [34]: > 100 µM; TGI [34]: > 100 µM; GI50 [35]: > 100 µM; TGI [35]: > 100 µM; GI50 [36]: > 100 µM; TGI [36]: > 100 µM; GI50 [37]: > 100 µM; TGI [37]: > 100 µM; GI50 [38]: > 100 µM; TGI [38]: > 100 µM; GI50 [39]: 48.1 µM; TGI [39]: > 100 µM; GI50 [40]: > 100 µM; TGI [40]: > 100 µM; GI50 [41]: > 100 µM; TGI [41]: > 100 µM; GI50 [42]: > 100 µM; TGI [42]: > 100 µM; GI50 [43]: > 100 µM; TGI [43]: > 100 µM; GI50 [44]: > 100 µM; TGI [44]: > 100 µM; GI50 [45]: 27.5 µM; TGI [45]: > 100 µM; GI50 [46]: > 100 µM; TGI [46]: > 100 µM; GI50 [47]: > 100 µM; TGI [47]: > 100 µM; GI50 [48]: > 100 µM; TGI [48]: > 100 µM; GI50 [49]: > 100 µM; TGI [49]: > 100 µM; GI50 [50]: > 100 µM; TGI [50]: > 100 µM; GI50 [51]: > 100 µM; TGI [51]: > 100 µM; GI50 [52]: > 100 µM; TGI [52]: > 100 µM; GI50 [53]: > 100 µM; TGI [53]: > 100 µM; GI50 [54]: > 100 µM; TGI [54]: > 100 µM; GI50 [55]: > 100 µM; TGI [55]: > 100 µM; GI50 [56]: > 100 µM; TGI [56]: > 100 µM
